The source of these data is patent US20240226343A1, “NEUROPEPTIDE Y1 RECEPTOR (NPY1R) TARGETED THERAPEUTICS AND USES THEREOF” (RADIONETICS ONCOLOGY, INC., priority 2022, published 2024).

The Ki is the dissociation constant of the complex between target and ligand, obtained from inhibition or displacement.

Where only a bound is given, the exact number is not on record here.

The first assay concerns the target T1, hNPY1R (Homo sapiens, UniProt P25929).
T1 construct: SK-N-MC cells endogenously expressing the NPY1R receptor; endogenous in cells; host or cells: SK-N-MC cells (crude membrane fractions)
T1 sequence (P25929 1-384): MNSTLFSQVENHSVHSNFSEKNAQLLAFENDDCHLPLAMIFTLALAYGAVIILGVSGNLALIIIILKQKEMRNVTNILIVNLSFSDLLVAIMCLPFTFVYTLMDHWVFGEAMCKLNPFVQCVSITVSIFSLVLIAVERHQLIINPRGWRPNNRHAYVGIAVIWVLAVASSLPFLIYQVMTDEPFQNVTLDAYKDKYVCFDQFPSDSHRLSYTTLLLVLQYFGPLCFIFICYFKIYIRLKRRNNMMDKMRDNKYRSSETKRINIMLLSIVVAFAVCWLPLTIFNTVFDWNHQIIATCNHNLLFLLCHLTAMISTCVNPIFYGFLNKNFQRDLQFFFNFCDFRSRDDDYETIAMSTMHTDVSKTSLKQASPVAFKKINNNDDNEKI
Nature of the assay: NPY1R binding assay: SK-N-MC membranes, [125I]-Peptide YY (human) competition. The following applies: data obtained after 60 minutes at 37° C.; SK-N-MC membranes; [125I]-Peptide YY 0.05 nM; read-out: hNPY1R binding Ki* †. How it is done:
Crude membrane fractions are prepared from SK-N-MC cells endogenously expressing the NPY1R receptor. The cells are grown to 85-100% confluence on standard tissue culture dishes in Eagle's Minimum Essential Medium supplemented with 10% dialyzed FBS. To prepare membranes, cells are scraped and collected in 1× Dulbecco's phosphate buffered saline and then pelleted at 1000 RPM's. The cell pellet is reconstituted in membrane preparation buffer (20 mM HEPES, 6 mM MgCl2 and 1 mM EGTA, protease inhibitor tablets, pH 7.4) and placed in a cell disruption vessel at 1000 PSI for 30 minutes on ice. The pressurized contents are then released and spun down at 1000 RPMs and the supernatant is collected and further centrifuged at 15,000 RPMs to pellet the membranes. The membrane pellet is resuspended in membrane preparation buffer, snap frozen and stored at −80° C. for later use.
[…] Assay contents are then filtered through unifilter GF/C microplates and washed with 9×400 μl of cold wash buffer (25 mM HEPES, 5 mM MgCl2, 1 mM CaCl2), 500 mM NaCl, 0.1% Tween-20, pH 7.4). Assay plates are read using a Top Count NXT and Ki values for compounds are determined using a GraphPad Prism 6 non-linear regression analysis.
Consider `CCC(=O)NCCNC(=O)/N=C(/N)NCCC[C@@H](NC(=O)C(c1ccccc1)c1cccc(OCCCCNC(=O)[C@H](CS(=O)(=O)O)NC(=O)CN2CCN(CC(=O)O)CCN(CC(=O)O)CCN(CC(=O)O)CC2)c1)C(=O)NCc1ccc(O)cc1` (single isomer, unassigned) [Compound 107B], for which the inhibition constant (Ki) fell in the range of 10 to 100 nM.

As for `CCC(=O)NCCNC(=O)/N=C(/N)NCCC[C@@H](NC(=O)C(c1ccccc1)c1cccc(OCCCCNC(=O)[C@H](N)CCCCNC(=O)CN2CCN(CC(=O)O)CCN(CC(=O)O)CCN(CC(=O)O)CC2)c1)C(=O)NCc1ccc(O)cc1` (single isomer, unassigned) [Compound 109B], the Ki is less than 10 nM.

On to `CCC(=O)NCCNC(=O)/N=C(/N)NCCC[C@@H](NC(=O)C(c1ccccc1)c1cccc(OCCCCNC(=O)CCC(NC(=O)CN2CCN(CC(=O)O)CCN(CC(=O)O)CCN(CC(=O)O)CC2)C(=O)O)c1)C(=O)NCc1ccc(O)cc1` (single isomer, unassigned) [Compound 110A], for which the inhibition constant (Ki) lay within 10 to 100 nM.

Still in this assay, the particulars now being: data obtained after 120 minutes at rt; SK-N-MC membranes; [125I]-Peptide YY; read-out: hNPY.R binding Ki* ††.
With `CCC(=O)NCCNC(=O)/N=C(/N)NCCC[C@@H](NC(=O)C(c1ccccc1)c1cccc(OCCCCNC(=O)NOCCNC(=O)CN2CCN(CC(=O)O)CCN(CC(=O)O)CCN(CC(=O)O)CC2)c1)C(=O)NCc1c(F)cc(O)cc1F` (single isomer, unassigned) [Compound 163A], the Ki is less than 10 nM.

Consider `CCC(=O)NCCNC(=O)/N=C(/N)NCCC[C@@H](NC(=O)C(c1ccccc1)c1cccc(OCCCCNC(=O)CCNC(=O)CN2CCN(CC(=O)O)CCN(CC(=O)O)CCN(CC(=O)O)CC2)c1)C(=O)NCc1c(F)cc(O)cc1F` (single isomer, unassigned) [Compound 162A], for which the Ki was less than 10 nM.

Consider `CCC(=O)NCCNC(=O)/N=C(/N)NCCC[C@@H](NC(=O)C(c1ccccc1)c1cccc(OCCCCNC(=O)CCCCCNC(=O)CN2CCN(CC(=O)O)CCN(CC(=O)O)CCN(CC(=O)O)CC2)c1)C(=O)NCc1ccc(O)cc1` (single isomer, unassigned) [Compound 140A], for which the inhibition constant Ki is less than 10 nM.

With `CCC(=O)NCCNC(=O)/N=C(/N)NCCC[C@@H](NC(=O)C(c1ccccc1)c1ccc(NCCCNC(=O)[C@H](N)CCCNC(=O)[C@@H](Cc2ccc(-c3ccccc3)cc2)NC(=O)CN2CCN(CC(=O)O)CCN(CC(=O)O)CCN(CC(=O)O)CC2)cc1)C(=O)NCc1ccc(O)cc1` (single isomer, unassigned) [Compound 134A], the inhibition constant (Ki) was less than 10 nM.

For `CCC(=O)NCCNC(=O)/N=C(/N)NCCC[C@@H](NC(=O)C(c1ccccc1)c1cccc(OCCCCNc2c(NCCNC(=O)[C@@H](CCCCN)NC(=O)CN3CCN(CC(=O)O)CCN(CC(=O)O)CCN(CC(=O)O)CC3)c(=O)c2=O)c1)C(=O)NCc1ccc(O)cc1` (stereo in doubt) [Compound 116B-In, indium (III) 2,2′,2″-(10-(2-((6-amino-1-((2-((2-((4-(3-((R,Z)-9-amino-4-((4-hydroxybenzyl)carbamoyl)-2,11,16-trioxo-1-phenyl-3,8,10,12,15-pentaazaoctadec-9-en-1-yl)phenoxy)butyl)amino)-3,4-dioxocyclobut-1-en-1-yl)amino)ethyl)amino)-1-oxohexan-2-yl)amino)-2-oxoethyl)-1,4,7,10-tetraazacyclododecane-1,4,7-triyl)triacetate], the Ki was less than 10 nM.

For `CCC(=O)NCCNC(=O)/N=C(/N)NCCC[C@@H](NC(=O)C(c1ccccc1)c1cccc(OCCCCNC(=O)[C@H](N)CCCCNC(=O)c2ccc(CNC(=O)CN3CCN(CC(=O)O)CCN(CC(=O)O)CCN(CC(=O)O)CC3)cc2)c1)C(=O)NCc1ccc(O)cc1` (single isomer, unassigned) [Compound 142A], the Ki is less than 10 nM.

Consider `CCC(=O)NCCNC(=O)/N=C(/N)NCCC[C@@H](NC(=O)C(c1ccccc1)c1cccc(NCCCNc2c(NCCNC(=O)CN3CCN(CC(=O)O)CCN(CC(=O)O)CCN(CC(=O)O)CC3)c(=O)c2=O)c1)C(=O)NCc1ccc(O)cc1` (single isomer, unassigned) [Compound 120B], for which the Ki is less than 10 nM.

As for `CCC(=O)NCCNC(=O)/N=C(/N)NCCC[C@@H](NC(=O)C(c1ccccc1)c1cccc(OCCCCNC(=O)[C@@H](CCCN)NC(=O)CCNC(=O)CN2CCN(CC(=O)O)CCN(CC(=O)O)CCN(CC(=O)O)CC2)c1)C(=O)NCc1ccc(O)cc1` (single isomer, unassigned) [Compound 147A], the Ki was less than 10 nM.

Regarding `CCC(=O)NCCNC(=O)/N=C(/N)NCCC[C@@H](NC(=O)C(c1ccccc1)c1cccc(NCCCNc2c(NCCNC(=O)CN3CCN(CC(=O)O)CCN(CC(=O)O)CCN(CC(=O)O)CC3)c(=O)c2=O)c1)C(=O)NCc1ccc(O)cc1` (single isomer, unassigned) [Compound 120A], the inhibition constant (Ki) is less than 10 nM.

As for `CCC(=O)NCCNC(=O)/N=C(/N)NCCC[C@@H](NC(=O)C(c1ccccc1)c1cccc(OCCCCNC(=O)NOCCNC(=O)CN2CCN(CC(=O)O)CCN(CC(=O)O)CCN(CC(=O)O)CC2)c1)C(=O)NCc1c(F)cc(O)cc1F` (single isomer, unassigned) [Compound 163B], the Ki is less than 10 nM.

In the case of `CCNC(=O)/N=C(/N)NCCC[C@@H](NC(=O)C(c1ccccc1)c1ccc(NCCCNC(=O)[C@@H](CCCNC(=N)N)NC(=O)[C@@H](Cc2ccc(-c3ccccc3)cc2)NC(=O)CN2CCN(CC(=O)O)CCN(CC(=O)O)CCN(CC(=O)O)CC2)cc1)C(=O)NCc1ccc(O)cc1` (single isomer, unassigned) [Compound 152], the Ki is less than 10 nM.

Take `CCC(=O)NCCNC(=O)/N=C(/N)NCCC[C@@H](NC(=O)C(c1ccccc1)c1ccc(NCCCNC(=O)[C@@H](CCCNC(=O)CN2CCN(CC(=O)O)CCN(CC(=O)O)CCN(CC(=O)O)CC2)NC(=O)CCCc2ccc(I)cc2)cc1)C(=O)NCc1ccc(O)cc1` (single isomer, unassigned) [Compound 153]: the Ki is less than 10 nM.

With `CCC(=O)NCCNC(=O)/N=C(/N)NCCC[C@@H](NC(=O)C(c1ccccc1)c1cccc(OCCCCNC(=O)C[C@H]2NC(=O)[C@@H](CCCNC(=O)CN3CCN(CC(=O)O)CCN(CC(=O)O)CCN(CC(=O)O)CC3)NC2=O)c1)C(=O)NCc1c(F)cc(O)cc1F` (single isomer, unassigned) [Compound 164A], the Ki was less than 10 nM.

On to `CCC(=O)NCCNC(=O)/N=C(/N)NCCC[C@@H](NC(=O)C(c1ccccc1)c1ccc(NCCCNC(=O)c2ccc(C(=O)NCCCCNC(=O)CN3CCN(CC(=O)O)CCN(CC(=O)O)CCN(CC(=O)O)CC3)cc2)cc1)C(=O)NCc1ccc(O)cc1` (stereo partly drawn) [Compound 157, 2,2′,2″-(10-(2-((4-(4-((3-((4-((4R,Z)-9-amino-4-((4-hydroxybenzyl)carbamoyl)-2,11,16-trioxo-1-phenyl-3,8,10,12,15-pentaazaoctadec-9-en-1-yl)phenyl)amino)propyl)carbamoyl)benzamido)butyl)amino)-2-oxoethyl)-1,4,7,10-tetraazacyclododecane-1,4,7-triyl)triacetic acid], for which the Ki was less than 10 nM.

As to `CCC(=O)NCCNC(=O)/N=C(/N)NCCC[C@@H](NC(=O)C(c1ccccc1)c1ccc(NCCCNC(=O)CN(C)C(=O)CN(C)C(=O)CN(C)C(=O)CN2CCN(CC(=O)O)CCN(CC(=O)O)CCN(CC(=O)O)CC2)cc1)C(=O)NCc1ccc(O)cc1` (single isomer, unassigned) [Compound 159], the inhibition constant (Ki) was less than 10 nM.

The assay is the same for the next values; noted with them: read-out: hNPY.R binding Ki* ††.
For `CCC(=O)NCCNC(=O)/N=C(/N)NCCC[C@@H](NC(=O)C(c1ccccc1)c1ccc(OCCCNc2c(NCCNC(=O)CN3CCN(CC(=O)O)CCN(CC(=O)O)CCN(CC(=O)O)CC3)c(=O)c2=O)cc1)C(=O)NCc1ccc(O)cc1` (single isomer, unassigned) [Compound 136A], the Ki is less than 10 nM.
